Patent US20140072654A1, “CANCER WITH METABOLIC THERAPY AND HYPERBARIC OXYGEN” (priority 2011, published 2014)
Entries after “also recorded” stand apart in the source; their conditions may differ.

Assays:
[1] = Blood ketones and glucose after oral gavage in rats; type: in vivo, rat; conditions: for blood BHB level (words): vs control water
Protocol: Whole blood samples (10 μl) were acquired for analysis of glucose and BHB utilizing a commercially available glucose/ketone monitoring system (Nova Max® Plus) at time 0, 30, 60, 120, 180 and 240 min. In addition, heparinized blood samples (200 μl) were collected into Eppendorf tubes at time 0, 30, 60, 120, 180 and 240 min. Samples were processed for the detection and quantification of BHB, AcAc, and acetone. Briefly, samples were chilled on ice for 30 s, centrifuged in a micro-centrifuge (13,000 G) for 3-5 min and plasma (>100 μl), treated with reducing reagent of cold 0.2M sodium borodeuteride (NaBD4; Sigma, 205591, CAS 15681-89-7) dissolved in 0.1M NaOH (8.4 mg NaBD4 in 1 ml of 0.1M NaOH) and then immediately frozen on dry ice before storing at −80° C. Acetone was analyzed at the 60 minute time point, which was the predicted peak of blood AcAc levels (Desrochers et al. 1995). 300 μl of whole blood were collected in addition to the above collections, stabilized with cold 0.2M NaBD4, and then immediately frozen on dry ice. Samples were stored at −80° C. until analyzed for ketones. Internal standards of [^2H6]BHB or [^2H8]isopropanol were added to the treated plasma or blood samples (50 μl or 15 μl) and the BHB, AcAc (as M+1 of BHB) or acetone (as 2-propanol) metabolites were analyzed by gas chromatography-mass spectrometry (GC-MS) using an Agilent 5973 mass spectrometer, linked to a 6890 gas chromatograph equipped with an autosampler. Briefly, GC-MS conditions were either EI or CI mode (electron or chemical ionization mode); the samples were detected by selected ion monitoring as the BHB- and AcAc-trimethylsilyl derivatives (EI) or the derivative of acetone-pentafluorobenzoyl (CI).
KE and BD. […] Blood was collected and processed as described in the previous example.
Ketone measurements were taken at 30, 60, 120, 180 and 240 minutes. Blood plasma was treated with sodium borodeuteride (NaB2H4) to stabilize ketone concentration and then assayed by GC-MS. The rapid rise relating to blood ketones from BD-AcAc2 is due primarily from rapid desterfication in blood and tissues.

VM-M3 metastatic cancer = assay: Survival time in VM-M3 mouse model of metastatic cancer; type: in vivo
[2] = Acute ketosis with supplementation in healthy VM/Dk mice (blood glucose, blood βHB, urine AcAc after feeding); type: in vivo, mouse
Protocol: FIG. 34(A)-(C) are graphs showing effect of ketone supplementation on blood glucose, blood βHB, urine AcAc, and body weight in mice. (A-C) blood glucose; (B) blood levels of ketones; and (C) urine AcAc of healthy VM/Dk mice 0-12 hours after feeding following 8 hour fast. […] Error bars represent ±SEM.

VM-M3/Fluc tumors = assay: Tumor bioluminescence in VM-M3/Fluc mice; type: in vivo, mouse
[3] = rats
[4] = tested on: rats exposed to hyperbaric oxygen (5 ATA O2); assay: CNS oxygen toxicity: latency to seizure (EEG) in rats in hyperbaric oxygen; type: in vivo, rat; conditions: for effect on latency to seizure / CNS-OT (words): 5 ATA O2, ~3 ml (~10 g/kg) gavage 30 min before HBO2
Text: Hyperbaric Chamber HBO2 system consisted of two main elements: 1) a plexiglass chamber (˜3 liter capacity, Diamond Box, Buxco, Electronics Inc., model PLY3114), that housed the rat during the experiment, and 2) a hyperbaric chamber (Reimers System Inc.—7.8 ATA MWP), that contained the plexiglass chamber and functioned as the pressure vessel. Both chambers were connected to an air compressor (oil-less rotary scroll compressor—model DK6086, Powerex).
During each experiment (hyperbaric hyperoxia), both the main chamber and the animal chamber were filled with air (dive profile). Rats were placed into the plexiglass chamber and allowed ten minutes to acclimate, at which time the plexiglass chamber was flushed with 100% 02. The animal was then allowed 15 minutes to acclimate before both chambers were compressed to 5 ATA (58.8 PSIG) at a rate of 0.7 ATA/min. The outer chamber was pressurized using air (capacity ˜205 liters) to minimize the risk of an electrical-induced fire. Each experiment was visually monitored via a live camera. LS was calculated from the moment at which the internal and the external chambers reached 5 ATA until the onset of convulsions, identified as high-amplitude, high frequency spikes lasting 10 to 30 sec, followed by polyspikes and wave formation concurrent with tonic-clonic motions of forelimbs and head. After the onset of seizures, the plexiglass chamber was flushed with air to quickly terminate seizure, and both chambers decompressed to sea level. Decompression rate was 1 ATA/min. Rats were then allowed a 15 min recovery period in air at 1 ATA before being removed from the chamber.
The radiotelemetry system consisted of an implantable 4ET radio-transmitter able to amplify and broadcast signals via a receiver (DSI PhysioTel, model RPC-2) connected to an acquisition interface unit (ACQ 7700 Ponemah) via electrical penetrations in the wall of the hyperbaric chamber. The acquisition interface unit was connected to a computer for real time data collection and storage. The same acquisition unit also recorded chamber pressure and temperature, which were measured, respectively, by […] directly connected to the acquisition system via BNC (Bayonet Neill-Concelman) cables.
Anticonvulsant effect of supplemental ketones was tested in rats exposed to hyperbaric oxygen (5 ATA O2). The effects of ketone esters (KEs) in preventing CNS-OT in rats were assessed before, during and after HBO2 exposure by measuring various parameters.
Adult male Sprague-Dawley rats (n=60) rats (300-450 grams; 3 to 6 month old) were obtained from Harlan, anesthetized in 3-5% isoflurane (in 02) and implanted with a 4ET radio-transmitter (Data Sciences International, DSI) using sterile surgical technique. The rat chamber was ventilated with pure O2 while the hyperbaric chamber, containing the radio-receiver (DSI), was pressurized in parallel with air to 5 atmospheres absolute (ATA). One pair of leads (positive and negative poles) was implanted in the costal diaphragm at the junction with the abdominal wall for diaphragmatic electromyogram (dEMG) signals, one pair of electrodes was inserted in the pectoral muscle to acquire electrocardiogram (ECG) data, and two pairs of wires were embedded in the skull between Bregma and Lambda, with one lead on either side of midline for each pair (EEG recordings). The EMG wires were not inserted into crural diaphragmatic muscle because of the high risk of pneumothorax due to the thinness of the muscle (419 to 630 μm). 4ET radio-transmitters also monitored core body temperature and physical activity. Rats were weighed immediately before surgery and subsequently once every 7 days, just prior to the weekly exposures to HBO2. After surgery, every animal recovered for ≧1 week. The rats were food (not water) deprived for 18 hours prior to the start of the experiment.
In each case animals were gavaged about 30 minutes prior to diving. […]

C[C@H](O)CCO [BD, R,S-1,3-butanediol, reference compound]
blood BHB ([1]; single oral administration ~10 g/kg): > 5 mM
blood AcAc level ([1]; ~10 g/kg gavage): only modest elevation in AcAc relative to KE; also recorded: low or undetectable
blood acetone level ([1]; ~10 g/kg gavage, 60 minutes): low or undetectable
effect on blood glucose ([1]; ~10 g/kg gavage, over 4 hrs, relative to water): no significant effect on blood glucose levels
blood BHB level (words) ([1]; ~10 g/kg gavage): significant increase in BHB
blood BHB level (words) ([1]; ~10 g/kg gavage, listed as 1,3-butanediol): elevated blood levels of B-hydroxybutyrate
increase in mean survival time (VM-M3 metastatic cancer; Example 5, compared to controls): approximately 16 days
% increase in survival time (VM-M3 metastatic cancer; Example 5, vs control (SD)): 51%
time after feeding to significant βHB elevation ([2]; after 8 hour fast): 1 h
ketone bodies elevated, βHB and AcAc ([2]; blood βHB and urine AcAc): only elevated βHB
time for which blood glucose was significantly lowered ([2]; standard chow with ketone supplementation after 8 hour fast): 8 h
tumor growth / bioluminescence (VM-M3/Fluc tumors; VM-M3 mice vs controls): profound effect
whole body tumor bioluminescence (ROI), representative animal (VM-M3/Fluc tumors; day 21 after tumor cell inoculation): 1.739×10^6
blood pH change, mild nonpathological acidosis (FIG. 25) [3]: from 7.45 to 7.35
decrease of blood pH compared to control after about 30 minutes ([3]; control pH ~7.5, mean): 0.05
decrease of blood pH compared to control after about one hour ([3]; control pH ~7.5, mean): 0.1
effect on latency to seizure / CNS-OT (words) ([4]; rats): did not delay CNS-OT; also recorded: did not increase LS
effect on latency to seizure / CNS-OT (words) ([4]; rats, listed as 1,3-BD): lack of efficacy
effect on latency to seizure / CNS-OT (words) ([4]; rats, listed as 1,3-butanediol): no effect on seizure latency

CC(=O)CC(=O)OCCC(C)O (centres unmarked) [BD-AcAc, R,S-1,3-butanediol acetoacetate monoester]
latency time to seizure, individual rat (EEG) ([4]; 5 ATA O2 (60 PSI), same rat 8 minutes without ketone ester): 110 min
effect on latency to seizure / CNS-OT (words) ([4]; rats): significantly increased the latency time to seizure
effect on latency to seizure / CNS-OT (words) ([4]; rats, listed as 1,3-BD AcAc monoester): delays CNS-OT
increase in latency to seizure (LS) compared to control ([4]; rats, 5 ATA O2, ~10 g/kg intragastric 30 min before dive, control water): 285%

(R)-1,3-butanediol ester [BHB ester, reference compound]
blood BHB level (words) ([1]; ~10 g/kg gavage): elevated blood levels of B-hydroxybutyrate
effect on latency to seizure / CNS-OT (words) ([4]; rats, listed as 1,3-BD BHB ester): lack of efficacy
effect on latency to seizure / CNS-OT (words) ([4]; rats, listed as B-hydroxybutyrate ester): no effect on seizure latency
